# Measured values reported in patent US20170209499A1, “Propolis and Extracts Thereof for the Treatment of Skin Cancers and Improvement of Skin Health” (Manuka Health New Zealand Limited, priority 2014, published 2017).
# Test system: human epidermoid cancer cell line A-431
# Experiment: MTT cell proliferation assay, human epidermoid (squamous) carcinoma cell line A-431
# Assay type: cell-based
# Conditions: for Mean OD: MTT Optical Density at 570 nm
# Description: The three human skin cancer cell lines were: • 1) Human Melanoma cell line (A-2058). • 2) Human Epidermoid (Squamous) Carcinoma cell line (A-431). • 3) Human Basal Cell Carcinoma cell line (TE 354.T).
# The cell lines were revived from cryostorage and cultured in the presence of the test and reference samples. An MIT assay was then performed on the cultures to determine the effect of the samples on the cell viability and proliferation. The percentage standard error of the mean was assessed and extreme outliers were removed if the SEM%>15. Preliminary statistical significance was assessed with an independent Student t-test at α<0.05 (with and without outliers). The methodology was based on the procedures reported by: • Ahn, N G, Campbell J S (1993). […] Proc Natl Acad Sci. 90: 5143-5147. • Galan-Cobo, A et al (2014). Functional inhibition of aquaporin-3 with a gold-based compound induces blockage of cell proliferation. J Cellul. Physiol. 229: 1787-1801. • Roomi, M W, Kalinovsky, J et al (2013) Effect of a nutrient mixture on matrix metalloproteinase-9 dimers in various human cancer cell lines. Inter 3 Oncol. 44: 936-942. • Huang, H C, Lin, M K et al (2013). Cardenolides and bufadienolide glycosides from Kalanchoe tubiflora and evaluation of cytotoxicity. Planta Medica. 79: 1362-1369. • Tilli, C M L J, Stavast-Kooy, A J W et al (2003). The garlic-derived organosulfur component ajoene decreases basal cell carcinoma tumor size by inducing apoptosis. Arch Dermatol Res. 295: 117-123.
# • 1. Human melanoma cell line (A-2058, ATCC CRL11147) was obtained from ATCC, Bethesda, Md., USA. • 2. Human squamous (epidermoid) carcinoma cell line (A-431, ATCC CRL1555) was obtained from ATCC, Bethesda, Md. USA. • 3. Human basal cell carcinoma cell line (TE 354.T, ATCC CRL7762) was obtained from ATCC, Bethesda, Md., USA. • 4. Dulbecco's Modified Eagle's Medium (DMEM) was obtained from GIBCO (12100-038). 10% Foetal Bovine Serum (FBS), 100 U/ml Penicillin and […] Streptomycin were added before use. • 5. Penicillin-streptomycin solution, stored at −20° C. consisting of 10000 units/ml penicillin and 10 mg/ml streptomycin in 0.9% NaCl was obtained from Sigma (#P-0781). • 6. Trypsin-EDTA solution consisting of 0.25% Trypsin/EDTA was obtained from Invitrogen (#15400054). • 7. Phosphate buffered saline (PBS) was prepared in-house. • 8. Hanks Balanced Salt Solution (HBSS), stored at 4° C. was obtained from GIBCO (#14185-052). • 9. Foetal Bovine Serum (FBS) stored at −20° C. was obtained from GIBCO (#10091-148). • 10. MTT Reagent, 100 mg/vial, was obtained from Sigma (M-2128) and then dissolved in PBS at 10 mg/ml and stored at −20° C. A 5 mg/ml MTT solution was prepared in PBS and stored at 4° C. as the working solution. • 11. MU lysis buffer: 10% sodium dodecyl sulphate (SDS)/45% Dimethyl Formamide was prepared by dissolving 20 g SDS in 100 ml of double-distilled water (DDW), and then adding 90 ml of Dimethyl Formamide to the solution. The pH was adjusted to 4.7 by glacial acetic acid, and DDW added up to a final volume of 200 ml. • 12. 5-Fluorouracil (5-FU) was supplied by Sigma (F-6627). Three working solutions were prepared at 19.5 μg/ml. 6.5 μg/ml and 1.95 μg/ml dissolved in 15% Ethanol/HBSS. Final concentrations were 1.95 μg/ml (15 μM), 0.65 μg/ml (5 μM) and 0.195 μg/ml (1.5 μM).
# • 1. Each of the cell lines was revived from cryostorage. • 2. Following initial propagation using the media described above (Characterisation of Test System, and Medium Preparation), the cell culture was subcultured using trypsin-EDTA. The media was removed and 5ml of the trypsin-EDTA solution added and incubated at 37° C. for 5 min or until all the cells had detached. The trypsin was neutralised by the addition of an equal volume of the relevant medium and centrifugation of the suspension at 300 g (1200 rpm) for 5 min at 4° C. • 3. […]
smiles,measurement,setting,value
"O=c1[nH]cc(F)c(=O)[nH]1 [5-fluorouracil, reference compound]",% inhibition,"A-431, 0.195 μg/ml, 24 hr incubation, vs cells only",weak and statistically insignificant inhibitor
same,Mean OD,"A-431, 0.195 μg/ml",0.2364
same,% inhibition,"A-431, 0.65 μg/ml, 24 hr incubation, vs cells only",weak and statistically insignificant inhibitor
same,Mean OD,"A-431, 0.65 μg/ml",0.2416
same,% inhibition,"A-431, 1.95 μg/ml, 24 hr incubation, vs cells only",weak and statistically insignificant inhibitor
same,Mean OD,"A-431, 1.95 μg/ml",0.2561
same,inhibition at 0.195 µg/mL,"Homo sapiens, A-431, 0.195 μg/ml, 24 hr incubation, vs cells only",9.79%
same,inhibition at 0.65 µg/mL,"Homo sapiens, A-431, 0.65 μg/ml, 24 hr incubation, vs cells only",7.8%
same,inhibition at 1.95 µg/mL,"Homo sapiens, A-431, 1.95 μg/ml, 24 hr incubation, vs cells only",2.26%
